Reference: the NIST ThermoML archive (doi:10.1021/je0201323)
± gives the expanded uncertainty stated by the source.

Experiment: xn = mol fraction of the nth substance listed
Conditions: for mass density: 101.3 kPa, Liquid, vibrating tube; for surface tension liquid-gas: Pendant drop shape

CN(C)C=O [dimethylformamide] + Cc1ccccc1
Conditions	mass density [kg/m3]	surface tension liquid-gas [mN/m]
278.15 K, x2 = 0	963 ± 0.3	–
278.15 K, x2 = 0.1502	949.1 ± 0.3	–
278.15 K, x2 = 0.3	935.7 ± 0.3	–
278.15 K, x2 = 0.4492	923.1 ± 0.3	–
278.15 K, x2 = 0.5998	911 ± 0.2	–
278.15 K, x2 = 0.7548	898.9 ± 0.2	–
283.15 K, x2 = 0	958.3 ± 0.3	–
283.15 K, x2 = 0.1502	944.4 ± 0.3	–
283.15 K, x2 = 0.3	931.1 ± 0.3	–
283.15 K, x2 = 0.4492	918.6 ± 0.3	–
283.15 K, x2 = 0.5998	906.5 ± 0.2	–
283.15 K, x2 = 0.7548	894.5 ± 0.2	–
287.81 K, x2 = 0	–	36.96 ± 0.38
287.81 K, x2 = 0.1502	–	35.22 ± 0.36
287.81 K, x2 = 0.3	–	33.42 ± 0.35
287.81 K, x2 = 0.4492	–	32.15 ± 0.34
287.81 K, x2 = 0.5998	–	31.2 ± 0.33
287.81 K, x2 = 0.7548	–	30.17 ± 0.32
288.15 K, x2 = 0	953.7 ± 0.3	–
288.15 K, x2 = 0.1502	939.9 ± 0.3	–
288.15 K, x2 = 0.3	926.6 ± 0.3	–
288.15 K, x2 = 0.4492	914.1 ± 0.3	–
288.15 K, x2 = 0.5998	902 ± 0.2	–
288.15 K, x2 = 0.7548	890 ± 0.2	–
293.15 K, x2 = 0	949.1 ± 0.3	–
293.15 K, x2 = 0.1502	935.3 ± 0.3	–
293.15 K, x2 = 0.3	922 ± 0.3	–
293.15 K, x2 = 0.4492	909.5 ± 0.2	–
293.15 K, x2 = 0.5998	897.5 ± 0.2	–
293.15 K, x2 = 0.7548	885.5 ± 0.2	–
297.82 K, x2 = 0	–	35.83 ± 0.37
297.82 K, x2 = 0.1502	–	33.97 ± 0.35
297.82 K, x2 = 0.3	–	32.5 ± 0.34
297.82 K, x2 = 0.4492	–	31.04 ± 0.33
297.82 K, x2 = 0.5998	–	30.04 ± 0.32
297.82 K, x2 = 0.7548	–	29.17 ± 0.31
298.15 K, x2 = 0	944.5 ± 0.3	–
298.15 K, x2 = 0.1502	930.6 ± 0.3	–
298.15 K, x2 = 0.3	917.4 ± 0.3	–
298.15 K, x2 = 0.4492	905 ± 0.2	–
298.15 K, x2 = 0.5998	892.9 ± 0.2	–
298.15 K, x2 = 0.7548	880.9 ± 0.2	–
303.15 K, x2 = 0	939.9 ± 0.3	–
303.15 K, x2 = 0.1502	926.1 ± 0.3	–
303.15 K, x2 = 0.3	912.9 ± 0.2	–
303.15 K, x2 = 0.4492	900.4 ± 0.2	–
303.15 K, x2 = 0.5998	888.4 ± 0.2	–
303.15 K, x2 = 0.7548	876.4 ± 0.2	–
307.86 K, x2 = 0	–	34.65 ± 0.36
307.86 K, x2 = 0.1502	–	32.84 ± 0.34
307.86 K, x2 = 0.3	–	31.2 ± 0.33
307.86 K, x2 = 0.4492	–	29.86 ± 0.32
307.86 K, x2 = 0.5998	–	28.98 ± 0.31
307.86 K, x2 = 0.7548	–	28.06 ± 0.3
308.15 K, x2 = 0	935.4 ± 0.3	–
308.15 K, x2 = 0.1502	921.5 ± 0.3	–
308.15 K, x2 = 0.3	908.3 ± 0.2	–
308.15 K, x2 = 0.4492	895.9 ± 0.2	–
308.15 K, x2 = 0.5998	883.8 ± 0.2	–
308.15 K, x2 = 0.7548	871.8 ± 0.2	–
313.15 K, x2 = 0	930.9 ± 0.3	–
313.15 K, x2 = 0.1502	917 ± 0.2	–
313.15 K, x2 = 0.3	903.8 ± 0.2	–
313.15 K, x2 = 0.4492	891.3 ± 0.2	–
313.15 K, x2 = 0.5998	879.2 ± 0.2	–
313.15 K, x2 = 0.7548	867.2 ± 0.2	–
317.86 K, x2 = 0	–	33.37 ± 0.35
317.86 K, x2 = 0.1502	–	31.7 ± 0.33
317.86 K, x2 = 0.3	–	30.21 ± 0.32
317.86 K, x2 = 0.4492	–	28.77 ± 0.31
317.86 K, x2 = 0.5998	–	27.61 ± 0.3
317.86 K, x2 = 0.7548	–	26.85 ± 0.29
318.15 K, x2 = 0	926.3 ± 0.3	–
318.15 K, x2 = 0.1502	912.4 ± 0.2	–
318.15 K, x2 = 0.3	899.2 ± 0.2	–
318.15 K, x2 = 0.4492	886.7 ± 0.2	–
318.15 K, x2 = 0.5998	874.6 ± 0.2	–
318.15 K, x2 = 0.7548	862.5 ± 0.2	–
323.15 K, x2 = 0	921.7 ± 0.3	–
323.15 K, x2 = 0.1502	907.8 ± 0.2	–
323.15 K, x2 = 0.3	894.6 ± 0.2	–
323.15 K, x2 = 0.4492	882 ± 0.2	–
323.15 K, x2 = 0.5998	869.9 ± 0.2	–
323.15 K, x2 = 0.7548	857.9 ± 0.2	–
327.88 K, x2 = 0	–	32.03 ± 0.34
327.88 K, x2 = 0.1502	–	30.5 ± 0.33
327.88 K, x2 = 0.3	–	29.04 ± 0.32
327.88 K, x2 = 0.4492	–	27.62 ± 0.31
327.88 K, x2 = 0.5998	–	26.59 ± 0.31
327.88 K, x2 = 0.7548	–	25.7 ± 0.3
328.15 K, x2 = 0	917.9 ± 0.2	–
328.15 K, x2 = 0.1502	903.3 ± 0.2	–
328.15 K, x2 = 0.3	890.1 ± 0.2	–
328.15 K, x2 = 0.4492	877.5 ± 0.2	–
328.15 K, x2 = 0.5998	865.3 ± 0.2	–
328.15 K, x2 = 0.7548	853.2 ± 0.2	–
333.15 K, x2 = 0	913.2 ± 0.2	–
333.15 K, x2 = 0.1502	899 ± 0.2	–
333.15 K, x2 = 0.3	885.7 ± 0.2	–
333.15 K, x2 = 0.4492	873 ± 0.2	–
333.15 K, x2 = 0.5998	860.7 ± 0.2	–
333.15 K, x2 = 0.7548	848.5 ± 0.2	–

Cc1ccccc1 [toluene] + CCCCCCC
Conditions	mass density [kg/m3]	surface tension liquid-gas [mN/m]
278.15 K, x2 = 0	880.3 ± 0.2	–
278.15 K, x2 = 0.15	843.7 ± 0.3	–
278.15 K, x2 = 0.299	811.3 ± 0.3	–
278.15 K, x2 = 0.449	782 ± 0.3	–
278.15 K, x2 = 0.595	756.4 ± 0.3	–
278.15 K, x2 = 0.749	732.6 ± 0.3	–
283.15 K, x2 = 0	875.9 ± 0.2	–
283.15 K, x2 = 0.15	839.3 ± 0.3	–
283.15 K, x2 = 0.299	807 ± 0.3	–
283.15 K, x2 = 0.449	777.8 ± 0.3	–
283.15 K, x2 = 0.595	752.2 ± 0.3	–
283.15 K, x2 = 0.749	728.4 ± 0.3	–
287.81 K, x2 = 0	–	28.93 ± 0.31
287.81 K, x2 = 0.299	–	24.49 ± 0.28
287.81 K, x2 = 0.449	–	23.38 ± 0.27
287.81 K, x2 = 0.595	–	22.41 ± 0.27
287.81 K, x2 = 0.749	–	21.58 ± 0.26
288.15 K, x2 = 0	871.4 ± 0.2	–
288.15 K, x2 = 0.15	834.9 ± 0.3	–
288.15 K, x2 = 0.299	802.7 ± 0.3	–
288.15 K, x2 = 0.449	773.5 ± 0.3	–
288.15 K, x2 = 0.595	747.9 ± 0.3	–
288.15 K, x2 = 0.749	724.2 ± 0.3	–
293.15 K, x2 = 0	866.9 ± 0.2	–
293.15 K, x2 = 0.15	830.5 ± 0.3	–
293.15 K, x2 = 0.299	798.3 ± 0.3	–
293.15 K, x2 = 0.449	769.1 ± 0.3	–
293.15 K, x2 = 0.595	743.6 ± 0.3	–
293.15 K, x2 = 0.749	719.9 ± 0.3	–
297.82 K, x2 = 0	–	27.76 ± 0.3
297.82 K, x2 = 0.15	–	25.16 ± 0.28
297.82 K, x2 = 0.299	–	23.47 ± 0.27
297.82 K, x2 = 0.449	–	22.17 ± 0.26
297.82 K, x2 = 0.595	–	21.35 ± 0.26
297.82 K, x2 = 0.749	–	20.56 ± 0.25
298.15 K, x2 = 0	862.4 ± 0.2	–
298.15 K, x2 = 0.15	826 ± 0.3	–
298.15 K, x2 = 0.299	794.1 ± 0.3	–
298.15 K, x2 = 0.449	764.7 ± 0.3	–
298.15 K, x2 = 0.595	739.2 ± 0.3	–
298.15 K, x2 = 0.749	715.6 ± 0.3	–
303.15 K, x2 = 0	857.8 ± 0.2	–
303.15 K, x2 = 0.15	821.5 ± 0.3	–
303.15 K, x2 = 0.299	789.4 ± 0.3	–
303.15 K, x2 = 0.449	760.3 ± 0.3	–
303.15 K, x2 = 0.595	734.8 ± 0.3	–
303.15 K, x2 = 0.749	711.2 ± 0.3	–
307.86 K, x2 = 0	–	26.6 ± 0.29
307.86 K, x2 = 0.15	–	24.08 ± 0.27
307.86 K, x2 = 0.299	–	22.42 ± 0.26
307.86 K, x2 = 0.449	–	21.23 ± 0.25
307.86 K, x2 = 0.595	–	20.31 ± 0.25
307.86 K, x2 = 0.749	–	19.62 ± 0.25
308.15 K, x2 = 0	853.2 ± 0.2	–
308.15 K, x2 = 0.15	817 ± 0.3	–
308.15 K, x2 = 0.299	784.9 ± 0.3	–
308.15 K, x2 = 0.449	755.8 ± 0.3	–
308.15 K, x2 = 0.595	730.4 ± 0.3	–
308.15 K, x2 = 0.749	706.8 ± 0.3	–
313.15 K, x2 = 0	848.6 ± 0.2	–
313.15 K, x2 = 0.15	812.4 ± 0.3	–
313.15 K, x2 = 0.299	780.4 ± 0.3	–
313.15 K, x2 = 0.449	751.3 ± 0.3	–
313.15 K, x2 = 0.595	725.9 ± 0.3	–
313.15 K, x2 = 0.749	702.4 ± 0.3	–
317.86 K, x2 = 0	–	25.46 ± 0.28
317.86 K, x2 = 0.15	–	23.03 ± 0.26
317.86 K, x2 = 0.299	–	21.39 ± 0.25
317.86 K, x2 = 0.449	–	20.28 ± 0.25
317.86 K, x2 = 0.595	–	19.37 ± 0.24
317.86 K, x2 = 0.749	–	18.62 ± 0.24
318.15 K, x2 = 0	843.9 ± 0.2	–
318.15 K, x2 = 0.15	807.8 ± 0.3	–
318.15 K, x2 = 0.299	775.8 ± 0.3	–
318.15 K, x2 = 0.449	746.8 ± 0.3	–
318.15 K, x2 = 0.595	721.4 ± 0.3	–
318.15 K, x2 = 0.749	697.9 ± 0.3	–
323.15 K, x2 = 0	839.2 ± 0.2	–
323.15 K, x2 = 0.15	803.1 ± 0.3	–
323.15 K, x2 = 0.299	771.2 ± 0.3	–
323.15 K, x2 = 0.449	742.2 ± 0.3	–
323.15 K, x2 = 0.595	716.9 ± 0.3	–
323.15 K, x2 = 0.749	693.4 ± 0.3	–
327.88 K, x2 = 0	–	24.29 ± 0.27
327.88 K, x2 = 0.15	–	22.05 ± 0.26
327.88 K, x2 = 0.299	–	20.44 ± 0.25
327.88 K, x2 = 0.449	–	19.31 ± 0.24
327.88 K, x2 = 0.595	–	18.43 ± 0.24
327.88 K, x2 = 0.749	–	17.66 ± 0.23
328.15 K, x2 = 0	834.5 ± 0.2	–
328.15 K, x2 = 0.15	798.5 ± 0.3	–
328.15 K, x2 = 0.299	766.5 ± 0.3	–
328.15 K, x2 = 0.449	737.6 ± 0.3	–
328.15 K, x2 = 0.595	712.3 ± 0.3	–
328.15 K, x2 = 0.749	688.8 ± 0.3	–
333.15 K, x2 = 0	829.8 ± 0.2	–
333.15 K, x2 = 0.15	793.8 ± 0.2	–
333.15 K, x2 = 0.299	761.8 ± 0.3	–
333.15 K, x2 = 0.449	733 ± 0.3	–
333.15 K, x2 = 0.595	707.7 ± 0.3	–
333.15 K, x2 = 0.749	684.2 ± 0.3	–
